Results as given in patent US10624947B2, “Bactericidal peptides and uses thereof” (INDIANA UNIVERSITY RESEARCH AND TECHNOLOGY CORPORATION, priority 2016, dated 2020).
≈ marks a conversion by molar mass, not a printed value. Read-outs that look alike come from different tables or passages of the source. Ends that are not written are not given here.

Key:
[1] = system: human red blood cells (hRBCs); test: Hemolytic activity; format: cell-based
Description: The amount of hemoglobin released was measured by the absorbance at 435 nm after a 60-minute incubation with the antimicrobial peptide. The percentage of hRBC lysis was normalized to the amount hemoglobin released by the suspension of the hRBCs in deionized water. The background amount of hRBC lysis was determined by adding phosphate buffered saline (PBS) at the same volume as 8 μM of the peptide to the hRBC for 1 h.
The hemolytic activities of peptides were determined using human red blood cells (hRBCs) (Innovative Research, Inc., cat. # IPLA-WB3-18103). The hRBCs were washed three times with PBS and then resuspended in PBS. The hRBCs solution was mixed with serial dilutions of the peptides in PBS buffer. The reaction mixtures were incubated for 45 min at 37° C. After centrifugation at 94×g for 10 min, the intact hRBCs were pelleted and the hemoglobin released from hRBCs was monitored by measuring the absorbance of the supernatant at 415 nm. The background level of absorbance was measured in sampled incubated with only PBS buffer. 100% hemolysis was determined in sampled incubated with water. The percentage of hemolysis was calculated according to the following equation. Percentage of hemolysis=[(Asample−Ablank)/Awater]*100%
Mammalian cells are thought to be less susceptible to cathelicidin peptides in part because the composition of their membrane will be less likely to interact with the peptides. To address this directly, human red blood cells (hRBCs) were tested for lysis after a 45-minute incubation with the peptides. The total lysis of hRBCs was determined by adding water to the cells. The amount of lysis during handling was determined by the addition of phosphate buffered saline at the same volume as that of the peptides.

Cultured human cells = test: MTT cytotoxicity assay; format: cell-based
Klebsiella pneumoniae = test: microbe, parasite or virus in culture
Description: (§1) Antimicrobial activity was determined using the broth microdilution method based on the general recommendation of the Clinical and Laboratory Standards Institute. Bacteria were grown in Mueller-Hinton broth at 37° C. until OD625 reached 0.06, and then bacteria were further diluted into 1:20 for later use. […] 10 microliter (μL) of diluted bacteria was mixed with 90 μL of peptides at varying concentrations followed by incubation at 37° C. for 16-18 hours. The MIC is the lowest peptide concentration at which visible growth was inhibited. The MIC value was determined at least twice in independent experiments and typically in 3-4 assays.

Description for Escherichia coli: as §1

With GRAKRLRKKLKKLAKKLSPVIPLLHLG [BMAP-27C] the RBC lysis [1] was “decreased RBC lysis compared to the control H2O”, the Minimal inhibitory concentration (Escherichia coli) was 32 µg/mL and the Minimal inhibitory concentration (Escherichia coli; E. coli ATCC 35218) was 4 µg/mL. The “Cytotoxicity, MTT assay” value (Cultured human cells) was “no increased cytotoxicity compared to the controls”.
For “GRFKRFRKKFKKLFKKLSPVIPLLHLG [BMAP-27, reference compound]”, the RBC lysis [1] was “decreased RBC lysis compared to the control H2O”, the Minimal inhibitory concentration (Escherichia coli) was 8 µg/mL and the “Cytotoxicity, MTT assay” value (Cultured human cells) was “no increased cytotoxicity compared to the controls”.
For `C[C@@H](O)[C@H]1C(=O)N2C(C(=O)O)=C(SCCN=CN)C[C@H]12` [Imipenem], the MIC (Klebsiella pneumoniae; Table 8, clinical isolate 88 (NDM1+)) was 16 µg/mL (≈ 53.4 µM), the MIC (Klebsiella pneumoniae; Table 8, clinical isolate 92) was > 64 µg/mL and the MIC (Klebsiella pneumoniae; Table 8, clinical isolate 109) was 16 µg/mL (≈ 53.4 µM). For the same molecule, the MIC (Klebsiella pneumoniae; Table 8, clinical isolate 113) was 16 µg/mL (≈ 53.4 µM), the MIC (Klebsiella pneumoniae; Table 8, clinical isolate 116) was 8 µg/mL (≈ 26.7 µM) and the MIC (Klebsiella pneumoniae; Table 8, clinical isolate 118) was 32 µg/mL (≈ 107 µM). The MIC (Klebsiella pneumoniae; Table 8, clinical isolate 136) was 8 µg/mL (≈ 26.7 µM), the MIC (Klebsiella pneumoniae; Table 8, clinical isolate 256) was ≥ 16 µg/mL and the MIC (Klebsiella pneumoniae; Table 8, clinical isolate 262 (NDM1+)) was > 16 µg/mL. For the same molecule, the MIC (Klebsiella pneumoniae; Table 8, clinical isolate 265) was 48 µg/mL (≈ 160 µM), the MIC (Klebsiella pneumoniae; Table 8, clinical isolate 280) was ≥ 16 µg/mL and the MIC (Klebsiella pneumoniae; Table 8, clinical isolate 281) was 4 µg/mL (≈ 13.4 µM). The MIC (Klebsiella pneumoniae; Table 8, clinical isolate 284) was 8 µg/mL (≈ 26.7 µM), the MIC (Klebsiella pneumoniae; Table 8, clinical isolate 286) was ≥ 16 µg/mL and the MIC (Klebsiella pneumoniae; Table 8, clinical isolate 330) was 4 µg/mL (≈ 13.4 µM). The MIC (Klebsiella pneumoniae; Table 8, clinical isolate 361) was > 16 µg/mL, the MIC (Klebsiella pneumoniae; Table 11, clinical isolate 88 (NDM1+)) was 16 µg/mL (≈ 53.4 µM) and the MIC (Klebsiella pneumoniae; Table 11, clinical isolate 92) was > 64 µg/mL. The MIC (Klebsiella pneumoniae; Table 11, clinical isolate 116) was 8 µg/mL (≈ 26.7 µM), the MIC (Klebsiella pneumoniae; Table 11, clinical isolate 118) was 32 µg/mL (≈ 107 µM) and the MIC (Klebsiella pneumoniae; Table 11, clinical isolate 136) was 8 µg/mL (≈ 26.7 µM). For the same molecule, the MIC (Klebsiella pneumoniae; Table 11, clinical isolate 256) was ≥ 16 µg/mL, the MIC (Klebsiella pneumoniae; Table 11, clinical isolate 262 (NDM1+)) was > 16 µg/mL and the MIC (Klebsiella pneumoniae; Table 11, clinical isolate 265) was 48 µg/mL (≈ 160 µM). The MIC (Klebsiella pneumoniae; Table 11, clinical isolate 280) was ≥ 16 µg/mL, the MIC (Klebsiella pneumoniae; Table 11, clinical isolate 281) was 4 µg/mL (≈ 13.4 µM) and the MIC (Klebsiella pneumoniae; Table 11, clinical isolate 284) was 8 µg/mL (≈ 26.7 µM). The MIC (Klebsiella pneumoniae; Table 11, clinical isolate 286) was ≥ 16 µg/mL, the MIC (Klebsiella pneumoniae; Table 11, clinical isolate 330) was 4 µg/mL (≈ 13.4 µM) and the MIC (Klebsiella pneumoniae; Table 11, clinical isolate 361) was > 16 µg/mL. For the same molecule, the MIC (Klebsiella pneumoniae; Table 11, clinical isolate 10916) was > 16 µg/mL and the MIC (Klebsiella pneumoniae; Table 11, clinical isolate 110113) was 16 µg/mL (≈ 53.4 µM).
With GRFKRLRKKFKKLFKKLSPVIPLLHLG [BMAP-27A] the RBC lysis [1] was “decreased RBC lysis compared to the control H2O”, the Minimal inhibitory concentration (Escherichia coli) was 8 µg/mL and the Minimal inhibitory concentration (Escherichia coli; E. coli ATCC 25922) was 2 µg/mL. The Minimal inhibitory concentration (Escherichia coli; E. coli ATCC 35218) was 2 µg/mL, the Minimal inhibitory concentration (Escherichia coli; E. coli IU0342) was 2 µg/mL and the “Cytotoxicity, MTT assay” value (Cultured human cells) was “no increased cytotoxicity compared to the controls”.
